The first experiment in a line: Compound was evaluated for its ability to inhibit the rotamase activity of FKBP-12. To be noted: read-out: Ki app.
With `COc1cccc(OC23CCCC(CC(=O)C2)C3)c1` (stereo not given), the Ki is 92.1 µM.
On to `O=C1CC2CCCC(OCc3ccccc3)(C1)C2` (stereo not given), for which the Ki turned out to be 85.8 µM.
On the same count and under the same terms, for `O=C1CC2CCCC(Oc3cccc(O)c3)(C1)C2` (stereo not given) the value was 16.7 µM; for `Cc1ccccc1OC12CCCC(CC(=O)C1)C2` (stereo not given), 120 µM.
Regarding `O=C1CC2CCCC(Sc3ccccc3)(C1)C2` (stereo not given), the Ki is 9.2 µM.
With `Cc1cccc(C)c1OC12CCCC(CC(=O)C1)C2` (stereo not given), the Ki stood at 461 µM.
As to `O=C1CC2CCCC(Oc3ccccc3)(C1)C2` (stereo not given), the Ki was 116 µM.
Regarding `O=C1CC2CCCC(S(=O)(=O)c3ccccc3)(C1)C2` (stereo not given), the Ki came out at 48.5 µM.
For the compound `CN(c1ccccc1)C12CCCC(CC(=O)C1)C2` (stereo not given), the Ki is 165 µM.

A further experiment is described as follows: Compound was evaluated for its ability to inhibit the rotamase activity of FKBP-12; no inhibition.
Conditions: not given; call rule not given here
Consider `O=C1CC2CCCC(O)(C1)C2` (stereo not given), for which the Ki app result is listed as “Not Active”.

Values taken from ChEMBL document CHEMBL1152005, “Design, synthesis and X-ray crystallographic studies of novel FKBP-12 ligands” (Bioorg Med Chem Lett, 1995).
